In EP4782437A1, “HETEROARYL COMPOUND, AND PREPARATION METHOD THEREFOR AND USE THEREOF IN MEDICINE” (Jiangsu Hengrui Pharmaceuticals Co., Ltd., priority 2023, dated 2025):
pIC50: −log10 of the molar value. Where two headings read alike, the source gives them in different places.

Legend:
[1] = test system: B cell activation in human whole blood; assay: Inhibition of B cell activation in human whole blood (CD69 expression, flow cytometry); type: cell-based; details: anti-human IgD 30 µg/ml + IL-4 5 ng/ml, 18 hours, CD69-positive CD19-positive B cells, read-out: IC50 values of inhibitory activity against B cell activation in human whole blood
Excerpt: Test example 2: Inhibitory activity of compounds of the present disclosure against B cell activation in human whole blood • I. Experimental materials and instruments • 1. Human whole blood (internal recruitment) • 2. Goat F(ab')2 anti-human IgD-UNLB (SouthernBiotech, 2032-01) • 3. DPBS (1x) (Gibco, 14190-144) • 4. Recombinant human IL-4 (Peprotech, 200-04) • 5. Brilliant Violet 421™ anti-human CD19 antibody (Biolegend, 302234) • 6. APC anti-human CD69 antibody (Biolegend, 310910) • 7. APC mouse IgG1, κ isotype control antibody (Biolegend, 400120) • 8. eBioscience™ 10X RBC lysis buffer (multi-species) (Thermo, 004300-54) • 9. NEST 96-well deep-well plate (Wuxi NEST Biotechnology Co., Ltd., 503501) • 10. 96-well round-bottom plate (Corning, 3788) • 11. 96-well flat-bottom plate (Corning, 3599) • 12. Attune™ NxT acoustic focusing cytometer (ThermoFisher Scientific, 4.2.0) • 13. Cell incubator (Thermo, Forma steri-cycle i160) • II. Experimental procedure
B cells express the B cell receptor (BCR) complex on their surface. When B cells in human whole blood are induced to activate, they can trigger the downstream signalling pathways of the receptor and express the activation marker CD69. The expression of CD69 in activated B cells was detected by flow cytometry, and the IC50 of the compounds were calculated to evaluate the effects of the compounds on BCR activation.
The test compounds dissolved in 100% DMSO at 20 mM were diluted with 100% DMSO to a concentration of 1 mM, which represents the 200× concentration of the highest compound concentration point in the reaction system. The compounds at this concentration were then subjected to 8-point 4-fold serial dilution with 100% DMSO. The positive control wells were set with 100% DMSO, whereas the negative control wells were set with Remiburtinib at a final concentration of 5 µM. The serially diluted compounds and 100% DMSO were further diluted 10-fold in PBS to achieve the 20× concentration, followed by thorough mixing.
After thorough mixing, the whole blood sample was transferred to a loading reservoir and then dispensed into a 96-well flat-bottom plate at 80 µl per well. The compound dilution was dispensed at 5 µl per well. The 11th column of each row was designated as the negative control well, with 5 µl of 100 µM positive control drug added to each well. After thorough mixing for 5 min, the plate was incubated in a 37°C incubator for 30 min. Human IgD antibody was diluted 1.67-fold with PBS to a concentration of 300 µg/mL, and 10 µl of the diluted solution was added to each well of the culture plate (final concentration: 30 µg/ml). Human IL-4 (stock solution at 50 µg/ml) was diluted 500-fold with PBS to a concentration of 100 ng/mL, and 5 µl of the diluted solution was added to each well of the culture plate (final concentration: 5 ng/ml). After thorough mixing for 5 min, the plate was cultured in a 37°C incubator with 5% CO2 for 18 hours.
Flow cytometry detection: CD69-APC, CD19-BV421 and CD4-APC antibodies, and the isotype control antibodies for CD69-APC were removed from 4°C storage. Each antibody was added at 1 µl per well. After thorough mixing for 5 min, the plate was incubated for 30 min at 4°C (refrigerator) in the dark for staining. The 10X RBC lysis buffer was diluted in water to prepare 1X RBC lysis buffer. Aliquots of 1 ml of the lysis buffer were dispensed into each well of a 96-well deep-well plate in advance. The stained samples were transferred into the deep-well plate containing the lysis buffer for erythrocyte lysis. After completing the transfer of an entire plate, the plate was incubated in the dark for 15-20 min. Upon completion of lysis, the plate was centrifuged at 2000 rpm for 4 min. Each well was washed with 1 ml of PBS. Subsequently, the cells were resuspended in 200 µl of PBS, transferred to a 96-well plate, and washed twice more using the same procedure. The samples were resuspended in 200 µl of PBS per well and then subjected to flow cytometry detection. […]

[2] = target: T1, BTK recombinant human protein (Homo sapiens, UniProt Q06187); assay: Inhibitory activity against BTK (HTRF KinEASE-TK kit); type: biochemical
T1 construct: purchased Thermo PV3363
Protocol: Test example 1: Inhibitory activity of compounds of the present disclosure against BTK • I. Experimental materials and instruments • 1. BTK recombinant human protein (Thermo, PV3363) • 2. HTRF KinEASE-TK kit (Cisbio, 62TK0PEC) • 3. 1 M MgCl2 (Thermo, AM9530G) • 4. 1 M MnCl2 (Sigma, M1787-100ML) • 5. Adenosine 5'-triphosphate (ATP) (New England Biolabs, P0756L) • 6. DTT 2M (Sangon Biotech, B645939) • 7. Ultrapure water (Invitrogen, 10977-015) • 8. OptiPlate-384, white opaque 384-well microplate (PerkinElmer, 6007290) • 9. 96-well round-bottom plate (Corning, 3788) • 10. Biochemical incubator (Shanghai Boxun Medical & Biological Instruments Co., Ltd., BSP-100) • 11. 15-mL centrifuge tube (Corning) • 12. Benchtop high-speed centrifuge (Changsha Yingtai Instrument Co., Ltd., TD4N) • 13. Multifunctional microplate reader (PerkinElmer, EnVision) • 14. Bravo liquid handling platform (Agilent Technologies, SGC120TH34702) • II. Experimental procedure
The HTRF KinEASE-TK kit is designed to detect changes in BTK enzyme activity based on two technologies, i.e., fluorescence resonance energy transfer and time-resolved fluorescence. The kit is operated in two stages: 1) enzyme reaction stage: the enzyme reaction is initiated by adding ATP, where the enzyme phosphorylates the substrate, and the compounds are then added to competitively bind to BTK against ATP, thereby inhibiting substrate phosphorylation; and 2) detection stage: after the enzyme reaction is complete, a detection reagent is added to terminate the reaction. Different groups on the phosphorylated substrate bind to the energy donor and energy acceptor, respectively, bringing the two into close proximity. During the instrumental readout, the energy donor is excited by an external light source, which enables resonance energy transfer to the proximal energy acceptor. The acceptor, in turn, becomes excited and emits light at a specific wavelength. Thus, changes in enzyme activity can be detected by measuring the signal values, and the inhibition rate of the compounds against the target enzyme can be calculated, thereby evaluating the inhibitory effect of the compounds on BTK enzyme activity.
Preparation of enzyme reaction buffer: 5× Kinase Buffer was diluted 5-fold with ultrapure water, and then the stock solutions of MgCl2, MnCl2 and DTT were added. The final composition of the buffer was as follows: 1× Kinase Buffer, 10 mM MgCl2, 1 mM MnCl2, and 1 mM DTT.
(§1) Preparation of 5 × BTK working solution: The BTK (5.17 µM) stock solution was removed from -20°C storage. Given that the BTK concentration in the enzyme reaction system was 2 nM and the concentration of the 5× working solution was 10 nM, the BTK stock solution was diluted 517-fold with the enzyme reaction buffer according to the volume required for the experiment. The diluted solution was then added to the 384-well plate at 2 µL per well. The plate was placed in a plate spinner and centrifuged at 2000 rpm for 1 minute to bring the liquid to the bottom of the wells.
as §1, with “[…]. Given” for “Preparation of 5 × BTK working solution: The BTK (5.17 µM) stock solution was removed from -20°C storage. Given”, “the SEB” for “the BTK”, “was 50” for “was 2”, “was 250” for “was 10”, “diluted 10-fold” for “diluted 517-fold”
The test compounds dissolved in 100% DMSO at 20 mM were diluted with 100% DMSO to a concentration of 200 µM, which represents the 200× concentration of the highest compound concentration point in the reaction system. The compounds at this concentration were then subjected to 10-point 3-fold serial dilution with 100% DMSO. The positive control wells and negative control wells were set with 100% DMSO. […]

[3] = read-out: IC50 values of inhibitory activity against BTK; 2 nM BTK, 10 µM ATP, 0.5 hours preincubation at 25°C
[4] = 2 nM BTK, 10 µM ATP, 0.5 hours preincubation at 25°C; read-out: IC50 values of inhibitory activity against BTK

T1 sequence (Q06187 whole entry): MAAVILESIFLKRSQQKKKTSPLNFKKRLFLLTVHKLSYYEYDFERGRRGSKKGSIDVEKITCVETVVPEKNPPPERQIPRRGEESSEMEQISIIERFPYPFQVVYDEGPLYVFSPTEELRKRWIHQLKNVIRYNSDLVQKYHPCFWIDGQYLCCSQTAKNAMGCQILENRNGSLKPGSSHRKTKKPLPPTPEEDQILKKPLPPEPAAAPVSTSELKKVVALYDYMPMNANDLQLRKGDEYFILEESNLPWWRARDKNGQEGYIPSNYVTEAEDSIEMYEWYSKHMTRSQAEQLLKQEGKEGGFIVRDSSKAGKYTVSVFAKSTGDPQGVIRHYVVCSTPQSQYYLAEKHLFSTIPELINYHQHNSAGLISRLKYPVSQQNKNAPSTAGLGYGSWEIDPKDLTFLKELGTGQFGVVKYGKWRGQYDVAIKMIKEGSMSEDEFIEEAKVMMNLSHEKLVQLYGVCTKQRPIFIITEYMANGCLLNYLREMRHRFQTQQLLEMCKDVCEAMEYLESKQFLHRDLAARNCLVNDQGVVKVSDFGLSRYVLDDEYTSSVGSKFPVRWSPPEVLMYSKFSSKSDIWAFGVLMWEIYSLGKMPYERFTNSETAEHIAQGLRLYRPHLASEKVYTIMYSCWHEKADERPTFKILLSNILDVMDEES

Row | pIC50 [1] | pIC50 [2, 4] | SMILES | pIC50 [2, 3]
1 | 7.00 to 8.00 | 8.24 | [2H]C([2H])([2H])N(CCOc1c(N)ncnc1-c1cc(F)cc(NC(=O)c2cc3c(cc2F)C2(CC2)CO3)c1C)C(=O)C=C [Example 17, N-(3-(6-amino-5-(2-(N-(methyl-d3)acrylamido)ethoxy)pyrimidin-4-yl)-5-fluoro-2-methylphenyl)-5-fluoro-2H-spiro[benzofuran-3,1'-cyclopropane]-6-carboxamide] | 
2 |  |  | C=CC(=O)N(C)CCOc1c(N)ncnc1-c1cc(F)cc(NC(=O)c2sc3c(c2F)C2(CC3)CC2)c1C [Example 26-2, N-(3-(6-amino-5-(2-(N-methacrylamido)ethoxy)pyrimidin-4-yl)-5-fluoro-2-methylphenyl)-3-fluoro-5,6-dihydrospiro[cyclopenta[b]thiophene-4,1'-cyclopropane]-2-carboxamide] | 8.21
3 | 7.00 to 8.00 |  | C=CC(=O)N(C)CCOc1c(N)ncnc1-c1cc(F)cc(NC(=O)c2ccc3c(c2F)OC2(CC2)C3)c1C [Example 20] | 
4 | 7.00 to 8.00 | 8.40 | C=CC(=O)N(C)CCOc1c(N)ncnc1-c1cc(F)cc(NC(=O)c2cc3c(cc2F)C(C)(C)CC3)c1C [Example 12, N-(3-(6-amino-5-(2-(N-methacrylamido)ethoxy)pyrimidin-4-yl)-5-fluoro-2-methylphenyl)-6-fluoro-1,1-dimethyl-2,3-dihydro-1H-indene-5-carboxamide] | 
5 | 7.00 to 8.00 | 8.05 | [2H]C([2H])([2H])N(CCOc1c(N)ncnc1-c1cc(F)cc(NC(=O)c2cc3c(cc2F)C2(CC3)CC2)c1C)C(=O)C=C [Example 19, N-(3-(6-amino-5-(2-(N-(methyl-d3)acrylamido)ethoxy)pyrimidin-4-yl)-5-fluoro-2-methylphenyl)-6'-fluoro-2',3'-dihydrospiro[cyclopropane-1,1'-indene]-5'-carboxamide] | 
6 | 7.00 to 8.00 | 8.16 | C=CC(=O)N(C)CCOc1c(N)ncnc1-c1cc(F)cc(NC(=O)c2ccc3c(c2F)OCC32CC2)c1C [Example 5, N-(3-(6-amino-5-(2-(N-methacrylamido)ethoxy)pyrimidin-4-yl)-5-fluoro-2-methylphenyl)-7-fluoro-2H-spiro[benzofuran-3,1'-cyclopropane]-6-carboxamide] | 
7 | 7.00 to 8.00 | 9.15 | C=CC(=O)N1CCC[C@H]1COc1c(N)ncnc1-c1cc(F)cc(NC(=O)c2ccc3c(c2F)OCC3(C)C)c1C [Example 31, (S)-N-(3-(5-((1-acryloylpyrrolidin-2-yl)methoxy)-6-aminopyrimidin-4-yl)-5-fluoro-2-methylphenyl)-7-fluoro-3,3-dimethyl-2,3-dihydrobenzofuran-6-carboxamide] | 
8 |  |  | C=CC(=O)N(C)CCOc1c(N)ncnc1-c1cc(F)cc(NC(=O)c2sc3c(c2F)CC(C)(C)C3)c1C [Example 6, N-(3-(6-amino-5-(2-(N-methacrylamido)ethoxy)pyrimidin-4-yl)-5-fluoro-2-methylphenyl)-3-fluoro-5,5-dimethyl-5,6-dihydro-4H-cyclopenta[b]thiophene-2-carboxamide] | 8.20
9 | 7.00 to 8.00 |  | C=CC(=O)N(C)CCOc1c(N)ncnc1-c1cc(F)cc(NC(=O)c2ccc(C3(C)CC3)cc2F)c1C [Example 2, N-(3-(6-amino-5-(2-(N-methacrylamido)ethoxy)pyrimidin-4-yl)-5-fluoro-2-methylphenyl)-2-fluoro-4-(1-methylcyclopropyl)benzamide] | 
10 |  | 8.90 | C=CC(=O)N1C[C@H](OC)C[C@H]1COc1c(N)ncnc1-c1cc(F)cc(NC(=O)c2ccc3c(c2F)OCC3(C)C)c1C [Example 33, N-(3-(5-(((2S,4R)-1-acryloyl-4-methoxypyrrolidin-2-yl)methoxy)-6-aminopyrimidin-4-yl)-5-fluoro-2-methylphenyl)-7-fluoro-3,3-dimethyl-2,3-dihydrobenzofuran-6-carboxamide] | 

Row | SMILES | pIC50 [1] | pIC50 [2, 4] | pIC50 [2, 3]
11 | C=CC(=O)N(C)CCOc1c(N)ncnc1-c1cc(F)cc(NC(=O)c2cc3c(cc2F)C2(CC3)CC2)c1CO [Example 11, N-(3-(6-amino-5-(2-(N-methacrylamido)ethoxy)pyrimidin-4-yl)-5-fluoro-2-(hydroxymethyl)phenyl)-6'-fluoro-2',3'-dihydrospiro[cyclopropane-1,1'-indene]-5'-carboxamide] | 7.00 to 8.00 |  | 8.38
12 | C=CC(=O)N(C)CCOc1c(N)ncnc1-c1cc(F)cc(NC(=O)c2ccc3c(c2F)OC(C)(C)C3)c1C [Example 4, N-(3-(6-amino-5-(2-(N-methacrylamido)ethoxy)pyrimidin-4-yl)-5-fluoro-2-methylphenyl)-7-fluoro-2,2-dimethyl-2,3-dihydrobenzofuran-6-carboxamide] | 7.00 to 8.00 |  | 8.29
